Experimental data: patent publication US20170050966A1, “INHIBITING THE TRANSIENT RECEPTOR POTENTIAL A1 ION CHANNEL” (HYDRA BIOSCIENCES, INC., priority 2014, published 2017)

Assays:
[1] = Oral PK and bioavailability of micronized Compound 2 suspension; format: in vivo; details: fasted cynomolgus monkeys
Description: Additional studies were conducted with micronized Compound 2 in rat, dogs (beagles), and cynomolgus monkeys. Animals received a 10 mg/kg dose oral dose of compound formulated as a suspension in 0.5% methyl cellulose in water for injection at a target concentration of 1 mg/mL, and administered a dose volume of 10 mL/kg by oral gavage in rats or fasted dogs and via oral delivery in fasted cynomolgus monkeys. The % F for the rats in these studies was 85%, 36% for the dogs, and 19% for the monkeys. FIG. 11 depicts the pharmacokinetic profile for these species.
Three studies were conducted in fasted cynomolgus monkeys to determine the PK profile and bioavailability of a suspension formulation of Compound 2. Three monkeys were administered a suspension containing 10 mg/kg micronized Compound 2 by oral gavage. Monkeys were bled before dosing and at 0.25, 0.50, 1, 2, 4, 6, 12, and 24 hours post-dosing. Compound 2 plasma levels were determined by LC/MS/MS. Additional studies were conducted to evaluate the PK profile at higher dose levels of Compound 2 administered to fasted monkeys as an oral suspension. Blood samples were collected prior to dosing and up to 24 hours post-dosing. An additional 48 hour blood sample was collected from monkeys dosed with 300 mg/kg Compound 2. Plasma levels of Compound 2 were determined by LC/MS/MS.

dogTRPA1 = dogTRPA1 (Canis lupus familiaris, UniProt A0A8I3Q1Q7); experiment: TRPA1 IC50, whole-cell patch clamp; format: cell-based, Dog; details: dogTRPA1, 10 μM AITC; read-out: IC50 Inward current
Chain of dogTRPA1 (A0A8I3Q1Q7 1-1118): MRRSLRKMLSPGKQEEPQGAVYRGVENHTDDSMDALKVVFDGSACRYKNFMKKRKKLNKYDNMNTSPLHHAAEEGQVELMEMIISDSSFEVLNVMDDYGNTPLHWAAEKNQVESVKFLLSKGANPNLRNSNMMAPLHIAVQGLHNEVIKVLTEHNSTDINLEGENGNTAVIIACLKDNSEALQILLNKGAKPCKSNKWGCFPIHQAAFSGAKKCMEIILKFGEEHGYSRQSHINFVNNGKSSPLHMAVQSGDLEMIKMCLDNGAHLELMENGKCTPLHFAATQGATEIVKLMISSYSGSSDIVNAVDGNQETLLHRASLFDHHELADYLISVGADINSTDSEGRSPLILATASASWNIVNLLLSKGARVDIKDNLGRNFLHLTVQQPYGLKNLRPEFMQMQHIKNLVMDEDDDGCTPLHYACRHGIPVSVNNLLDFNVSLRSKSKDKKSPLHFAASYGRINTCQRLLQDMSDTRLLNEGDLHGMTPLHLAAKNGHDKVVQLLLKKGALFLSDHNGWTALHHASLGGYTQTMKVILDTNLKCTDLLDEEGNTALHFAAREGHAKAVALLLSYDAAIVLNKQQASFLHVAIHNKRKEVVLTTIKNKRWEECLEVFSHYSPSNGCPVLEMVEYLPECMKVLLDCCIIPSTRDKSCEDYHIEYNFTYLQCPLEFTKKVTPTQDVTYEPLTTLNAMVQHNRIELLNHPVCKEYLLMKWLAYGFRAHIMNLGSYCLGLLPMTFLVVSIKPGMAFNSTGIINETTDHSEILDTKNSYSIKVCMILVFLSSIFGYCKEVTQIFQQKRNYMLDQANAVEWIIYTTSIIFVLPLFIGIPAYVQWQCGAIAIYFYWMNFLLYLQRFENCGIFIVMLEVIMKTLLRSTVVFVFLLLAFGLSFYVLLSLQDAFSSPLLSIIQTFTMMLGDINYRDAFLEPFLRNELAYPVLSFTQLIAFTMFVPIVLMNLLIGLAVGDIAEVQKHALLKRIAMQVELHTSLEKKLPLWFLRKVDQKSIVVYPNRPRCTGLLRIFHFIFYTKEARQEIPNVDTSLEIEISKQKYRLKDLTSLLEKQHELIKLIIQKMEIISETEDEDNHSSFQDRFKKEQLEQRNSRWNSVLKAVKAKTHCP
Text: The change in IC50 block in the presence of albumin and plasma was also studied. It is assumed that the pharmacological effect of a drug correlates to unbound plasma levels, which is known as the “free drug hypothesis”. The aim of this study was to estimate the change in IC50 for block of human TRPA1 (hTRPA1) by Compound 2 in the presence of physiologically relevant concentrations of albumin and plasma (see Table 7). The human form of TRPA1 was used to assess protein binding in all species due to technical issues. The whole-cell patch clamp technique as described in del Camino, D. et al. J Neurosci 74 (2010) 30:15165 was employed to measure current through hTRPA1 upon activation by allyl isothiocyanate (AITC), the active ingredient in mustard oil, in the presence of 1% (w/v) serum albumin or 25% (v/v) plasma from various species including human plasma (hPlasma), human serum albumin (HSA), rat plasma (rPlasma), rat serum albumin (RSA), dog plasma, and sheep serum albumin (sheepSA). […]
Data for TRPA1 inhibition was obtained by this method for the indicated compounds of Formula (I), with the relevant data included in Table 14 below. All currents were recorded in whole-cell configuration using EPC-9 and EPC-10 amplifiers and Patchmaster software (HEKA). […]

C[C@@H](C(=O)Nc1ccnc(-c2cnc(N3CCC[C@H]3C(F)(F)F)nc2)n1)n1cnc2c1c(=O)n(C)c(=O)n2C [Compound 2, (S)-2-(1,3-dimethyl-2,6-dioxo-2,3-dihydro-1H-purin-7(6H)-yl)-N-(2′-((S)-2-(trifluoromethyl)pyrrolidin-1-yl)-[2,5′-bipyrimidin]-4-yl)propanamide]
bioavailability ([1]; cynomolgus monkey, plasma, 10 mg/kg oral, micronized suspension): 19%
Exposures on an AUC and Cmax basis versus dose ([1]; oral suspension): increased with doses up to 1000 mg/kg
IC50 (dogTRPA1): 23.5 ± 6.4 nM
